In patent publication US5486597A, “Tetrapeptide derivatives and analogues” (James Black Foundation Limited, priority 1990, dated 1996):
Non-standard residues stand in square brackets, D forms with d. Residues, ends and D or L forms follow the SMILES beside them. *: point of attachment. Phe(4-Cl) = N[C@@H](Cc1ccc(Cl)cc1)C(=O)O; 1Nal = N[C@@H](Cc1cccc2ccccc12)C(=O)O; 2Nal = N[C@@H](Cc1ccc2ccccc2c1)C(=O)O; d2Nal = N[C@H](Cc1ccc2ccccc2c1)C(=O)O; Phe(ol) = N[C@H](CO)Cc1ccccc1; Boc = CC(C)(C)OC(=O)*

Tests used:
Type in all cases: cell-based
[1] = molecular target: T1, gastrin receptor (Cavia porcellus, UniProt H0VZC5); experiment: guinea-pig fundus assay for gastrin activity (stomach muscle strips); details: 10^-8 M devazepide present, 60 minute equilibration, agonist e.g. pentagastrin, standard errors less than 5%
T1 construct: Strips of muscle (approximately 2.5 cm by 1 cm) are removed from the proximal area of the stomach; from tissue; host or cells: guinea-pig proximal stomach (fundus) muscle strips
T1 sequence (H0VZC5 1-426): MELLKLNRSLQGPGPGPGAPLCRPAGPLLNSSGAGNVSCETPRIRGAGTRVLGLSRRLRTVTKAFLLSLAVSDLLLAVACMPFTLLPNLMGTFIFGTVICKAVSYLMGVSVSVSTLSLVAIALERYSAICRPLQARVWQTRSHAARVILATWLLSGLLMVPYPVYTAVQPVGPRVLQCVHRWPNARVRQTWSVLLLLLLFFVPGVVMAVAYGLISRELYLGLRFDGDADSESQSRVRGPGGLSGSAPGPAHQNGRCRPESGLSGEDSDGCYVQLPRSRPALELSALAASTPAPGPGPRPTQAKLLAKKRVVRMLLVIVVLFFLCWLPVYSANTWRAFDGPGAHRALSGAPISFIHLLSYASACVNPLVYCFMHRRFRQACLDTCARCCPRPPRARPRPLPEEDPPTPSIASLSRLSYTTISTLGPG
Description: The compounds were assayed for gastrin activity using the mouse stomach assay as described by Black, J. W. and Shankley, N. P., Br. J. Pharmacol., 86, 571-579, (1985), and also in the guinea-pig fundus assay, as follows:
The stomach is removed from a male Dunkin-Hartley guinea-pig (250-500 g), and Krebs solution is injected through a hypodermic needle under the top stomach muscle layer. The composition (mM) of the Krebs solution is as follows: Na^+ 143, K^+ 5.9, Ca^2+ 2.5, Mg^2+ 1.2, Cl^- 128, H2 PO4^- 2.2, HCO3^- 24.9, SO4^2- 1.2, dextrose 10. Strips of muscle (approximately 2.5 cm by 1 cm) are removed from the proximal area of the stomach (one from each side) and tied with cotton thread to isotonic transducers under an initial loading tension of 0.35 g.
The preparation is immersed in 20 mls of Krebs solution containing 10^-8 M devazepide (25 μl 2×10^-3 M devazepide/100% DMF solution in 5 dm^3 Krebs) and gassed with 95% O2 /5% CO2. The function of the devazepide is to block possible effects at CCK receptors present in the tissue.
The preparation is washed twice over a 60 minute period then 10 mM KCl is added. At 90 minutes, test compounds (ie. potential antagonists) are added and a further 60 minute equilibration period allowed. After this time, cumulative agonist (e.g. pentagastrin) dose-response curves are constructed.

[2] = molecular target: T2, cholecystokinin receptors (Cavia porcellus, UniProt Q63931); experiment: CCK-antagonist activity in isolated guinea-pig gall-bladder strip preparations; details: guinea-pig gall-bladder strips; CCK-8 as agonist; test compound incubated for 60 minutes; standard errors less than 5%
T2 construct: Isolated, strip preparations were prepared from gall-bladders removed from male Dunkin-Hartley guinea-pigs; from tissue; host or cells: guinea-pig gall-bladder strips
T2 sequence (Q63931 1-430): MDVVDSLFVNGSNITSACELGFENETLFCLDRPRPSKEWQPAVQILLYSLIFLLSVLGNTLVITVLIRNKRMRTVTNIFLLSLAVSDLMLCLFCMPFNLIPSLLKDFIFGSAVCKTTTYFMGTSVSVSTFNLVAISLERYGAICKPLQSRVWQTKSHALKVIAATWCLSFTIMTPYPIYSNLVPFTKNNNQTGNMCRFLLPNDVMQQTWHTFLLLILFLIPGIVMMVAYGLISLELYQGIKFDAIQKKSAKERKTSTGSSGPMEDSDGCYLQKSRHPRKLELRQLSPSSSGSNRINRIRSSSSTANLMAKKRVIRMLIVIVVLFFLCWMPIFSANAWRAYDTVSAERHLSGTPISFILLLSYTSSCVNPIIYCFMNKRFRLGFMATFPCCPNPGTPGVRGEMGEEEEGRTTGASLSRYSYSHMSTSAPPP
Description: The compounds of the invention were also assayed for CCK-antagonist activity as follows:
Isolated, strip preparations were prepared from gall-bladders removed from male Dunkin-Hartley guinea-pigs (250-500 g body weight) according to the method of La Morte, W. W., et al., J.P.E.T., 217, (3), 638-644 (1981).
The complete gall-bladder is removed and opened along the longitudinal axis. Strips measuring 3 mm in the longitudinal axis and 1 mm in the transverse axis are cut and then tied with cotton to stainless steel wires. The preparation is connected to a GRASS FTO3 isometric transducer under an initial loading tension of 1 g and is immersed in 20 mls of Krebs solution maintained at 37° C. and gassed with 95% O2 /5% CO2. The Krebs solution is as detailed above in connection with the fundus assay, except that the Ca^2+ concentration is decreased to 0.5 mM. After 30 mins the preparation is washed. Drug addition begins after an initial 90 min stabilisation period. Responses are measured as changes in tension from that immediately prior to any drug addition. Single cumulative agonist concentration-effect curves, using CCK-8 as agonist, are obtained on each preparation in the absence and presence of test compound which has been incubated for 60 minutes. The antagonist activity of the test compound is estimated and expressed as the negative logarithm (base 10) of the equilibrium dissociation constants (pK8) using the modifications of standard competitive analysis described by Black et al., Br. J. Pharmacol.,86,571-579, (1985) and Shankley et al., Br. J. Pharmacol.,94,264-274 (1988).

[3] = molecular target: T3, gastrin receptor (Mus musculus, UniProt P56481); experiment: mouse stomach assay for gastrin activity (isolated stomach, acid secretion); details: for pKB mouse stomach: isolated mouse stomach assay, gastrin antagonism, standard errors less than 5%; for Acid seretion at 10^-5 M test compound, relative to pentagastrin (%): mouse stomach, NS = not significant
T3 construct: assayed for gastrin activity using the mouse stomach assay; from tissue; host or cells: isolated mouse stomach
T3 sequence (P56481 1-453): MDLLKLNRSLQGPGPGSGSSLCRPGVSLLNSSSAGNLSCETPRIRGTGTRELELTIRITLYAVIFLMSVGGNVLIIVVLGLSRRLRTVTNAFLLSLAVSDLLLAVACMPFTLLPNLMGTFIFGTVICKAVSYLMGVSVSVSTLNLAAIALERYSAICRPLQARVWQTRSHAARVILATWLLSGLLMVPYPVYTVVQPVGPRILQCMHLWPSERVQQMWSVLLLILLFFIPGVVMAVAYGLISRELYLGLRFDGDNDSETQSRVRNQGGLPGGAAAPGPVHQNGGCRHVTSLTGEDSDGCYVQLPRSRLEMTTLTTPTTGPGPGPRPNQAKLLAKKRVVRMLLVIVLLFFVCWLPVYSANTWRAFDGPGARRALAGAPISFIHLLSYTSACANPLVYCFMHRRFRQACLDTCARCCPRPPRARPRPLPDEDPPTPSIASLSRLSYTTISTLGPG
Description: The compounds were assayed for gastrin activity using the mouse stomach assay as described by Black, J. W. and Shankley, N. P., Br. J. Pharmacol., 86, 571-579, (1985), and also in the guinea-pig fundus assay, as follows: […]

pKB [1] | pKB [2] | Compound | further results
5.9 | 7.0 | N-t-Butyloxycarbonyl-L-tryptophyl-L-3-(2-naphthyl)alanyl-L-aspartyl-α-2-phenethylester [Example 63] | –
5.7 | 6.6 | COc1cc2c(cc1OC)CN(C(=O)C(CC(=O)O)NC(=O)C(Cc1ccc3ccccc3c1)NC(=O)C(Cc1c[nH]c3ccccc13)NC(=O)OC(C)(C)C)CC2 [Example 48, N-t-Butyloxycarbonyl-L-tryptophyl-L-3-(2-naphthyl)alanyl-L-aspartyl-2-N-(6,7-dimethoxy-1,2,3,4-tetrahydro)isoquinolinamide] | –
5.6 | 6.0 | CC(C)(C)OC(=O)N[C@@H](Cc1c[nH]c2ccccc12)C(=O)N[C@@](C)(Cc1ccc2ccccc2c1)C(=O)N[C@@H](CC(=O)O)C(=O)N[C@@H](Cc1ccccc1)C(N)=O [Example 57, N-t-Butyloxycarbonyl-L-tryptophyl-L-2-methyl-3-(2-naphthyl)alanyl-L-aspartyl-L-phenylalaninamide] | –
5.7 | 7.0 | COc1ccc(CNC(=O)[C@H](CC(=O)O)NC(=O)[C@H](Cc2ccc3ccccc3c2)NC(=O)[C@H](Cc2c[nH]c3ccccc23)NC(=O)OC(C)(C)C)cc1 [Example 51] | –
6.2 | 6.8 | CC(C)(C)OC(=O)N[C@@H](Cc1c[nH]c2ccccc12)C(=O)N[C@@H](Cc1ccc2ccccc2c1)C(=O)N[C@@H](CC(=O)O)C(=O)NCCc1ccc(S(N)(=O)=O)cc1 [Example 49, N-t-Butyloxycarbonyl-L-tryptophyl-L-3-(2-naphthyl)alanyl-L-aspartyl-4-sulphonamidophenethylamide] | –
– | 5.9 | N-t-benzyloxycarbonyl-β-alanyl-L-tryptophyl-L-3-(2-naphthyl)alanyl-L- aspartyl-L-phenylalaninamide [Example 23] | pKB mouse stomach [3]: 5.5; Acid seretion at 10^-5 M test compound, relative to pentagastrin (%) [3]: 40%
– | 5.9 | CC(C)(C)OC(=O)N[C@@H](Cc1c[nH]c2ccccc12)C(=O)N[C@@H](Cc1ccc2ccccc2c1)C(=O)N[C@@H](CC(=O)O)C(=O)N[C@@H](Cc1ccc(Cl)cc1)C(N)=O [Example 11, N-t-Butyloxycarbonyl-L-tryptophyl-L-3-(2-naphthyl)alanyl-L-aspartyl-L-(4-chlorophenylalanin)amide] (Boc-W[2Nal]D[Phe(4-Cl)]-NH2) | pKB mouse stomach [3]: 6.6; Acid seretion at 10^-5 M test compound, relative to pentagastrin (%) [3]: 60%

Second part, the compound before the results:

Compound | pKB [1] | pKB [2] | further results
CC(C)(C)OC(=O)N[C@@H](Cc1c[nH]c2ccccc12)C(=O)N[C@@H](Cc1ccc2ccccc2c1)C(=O)N[C@@H](CC(=O)O)C(=O)N[C@@H]1CCC[C@H]1c1ccccc1 (single isomer, unassigned; diastereomer 2) [Example 32, N-t-Butyloxycarbonyl-L-tryptophyl-L-3-(2-naphthyl)alanyl-L-aspartyl-trans-2-phenylcyclopentylamide (diastereomer 2)] | 6.1 | 6.6 | –
CC(C)(C)OC(=O)N[C@@H](Cc1c[nH]c2ccccc12)C(=O)N[C@H](Cc1ccc2ccccc2c1)C(=O)N[C@@H](CC(=O)O)C(=O)N[C@@H](Cc1ccccc1)C(N)=O [Example 3, N-t-Butyloxycarbonyl-L-tryptophyl-D-3-(2-naphthyl)alanyl-L-aspartyl-L-phenylalaninamide] (Boc-W[d2Nal]DF-NH2) | – | – | Kb [1]: 2510 nM
N-t-Butyloxycarbonyl-L-tryptophyl-L-3-(2-naphthyl)alanyl-L-aspartyl-L-3-cyclohexylalaninamide [Example 36] | 5.4 | 6.3 | –
N-t-Butyloxycarbonyl-L-tryptophyl-L-3-(2-naphthyl)alanyl-L-aspartyl-1-indanylamide [Example 25] | 5.7 | 6.3 | –
CC(C)(C)OC(=O)N[C@@H](Cc1c[nH]c2ccccc12)C(=O)N[C@@H](Cc1ccc2ccccc2c1)C(=O)N[C@H](CC(=O)O)C(=O)N[C@@H](Cc1ccccc1)C(N)=O [Example 12, N-t-Butyloxycarbonyl-L-tryptophyl-L-3-(2-naphthyl)alanyl-D-aspartyl-L-phenylalaninamide] (Boc-W[2Nal][dD]F-NH2) | – | – | Kb [1]: 3160 nM; Kb [2]: 39.8 nM
CC(C)(C)OC(=O)N[C@@H](Cc1c[nH]c2ccccc12)C(=O)N[C@@H](Cc1ccc2ccccc2c1)C(=O)N[C@@H](CC(=O)O)C(=O)N[C@H](CO)Cc1ccccc1 [Example 9, N-t-Butyloxycarbonyl-L-tryptophyl-L-3-(2-naphthyl)alanyl-L-aspartyl-L-phenylalaninol] (Boc-W[2Nal]D[Phe(ol)]) | – | – | Kb [1]: 2510 nM; Kb [2]: 1260 nM
CC(C)(C)OC(=O)N[C@@H](Cc1c[nH]c2ccccc12)C(=O)N[C@@H](Cc1cccc2ccccc12)C(=O)N[C@@H](CC(=O)O)C(=O)N[C@@H](Cc1ccccc1)C(N)=O [Example 4, N-t-Butyloxycarbonyl-L-tryptophyl-L-3-(1-naphthyl)alanyl-L-aspartyl-L-phenylalaninamide] (Boc-W[1Nal]DF-NH2) | – | – | Kb [1]: 1580 nM
NC(=O)[C@H](Cc1ccccc1)NC(=O)[C@H](CC(=O)O)NC(=O)[C@H](Cc1ccc2ccccc2c1)NC(=O)Cc1c[nH]c2ccccc12 [Example 20, Indole-3-acetamido-L-3-(2-naphthyl)alanyl-L-aspartyl-L-phenylalaninamide] | – | 6.7 | pKB mouse stomach [3]: 6.2; Acid seretion at 10^-5 M test compound, relative to pentagastrin (%) [3]: 33%
N-t-Butyloxycarbonyl-L-tryptophyl-L-3-(2-naphthyl)alanyl-L-aspartyl]-3-azaspiro[5.4]decylamide [Example 62] | 5.6 | – | –
